# Experiment: Anti-hygroscopic and hygroscopic property by dynamic vapor sorption (DVS)
# Format: physicochemical
# Conditions: raw powders; DVS 37° C., 50 to 95% RH
# Protocol: For each SFD preparation prepared in Example 1 and each raw powder (Leu, Man, Tre, FlNa) in compositions, using a Dynamic Vapor Sorption measuring instrument (DVS: Dynamic Vapor Sorption; DVS advantage, Surface Measurement Systems), anti-hygroscopic property and hygroscopic growth from inhalation to the respiratory tract and deep lungs in high humidity were evaluated.
# By a DVS, the mass change of a sample filled on one side of the balance-type measuring unit due to the adsorption and desorption of water in a set temperature and humidity environment can be monitored on a second scale. Regarding the setting of conditions for moisture absorption growth evaluation, to reproduce the temperature and humidity environment changes until the powder fine particles reach the deep lungs, the environment before inhalation was set to “temperature: 37° C., relative humidity (RH): 50% (absolute humidity: […])” and the lung environment after inhalation was set to “temperature: 37° C., 95% RH (absolute humidity: 41.62 g/m^3)”.
row,Compound,mass change rate
1,"CC(C)C[C@H](N)C(=O)O [Leu, L-leucine]",about 0.08%
2,"OC[C@@H](O)[C@@H](O)[C@H](O)[C@H](O)CO [Man, D-(−)-mannitol]",~0.29%
3,"OC[C@H]1O[C@H](O[C@H]2O[C@H](CO)[C@@H](O)[C@H](O)[C@H]2O)[C@H](O)[C@@H](O)[C@@H]1O [Tre, D-(+)-trehalose]",~22%
